The subject of this experiment is BDF1 mice, B16 melanoma ip, median survival T/C. Put plainly: NCI In Vivo Anticancer Drug Screen. Data for tumor model B16 Melanoma (intraperitoneal) in B6D2F1 (BDF1) mice. Particulars: endpoint: median survival time, higher = longer survival. Put shortly:
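Values are ratios of treated (T) to vehicle-control (C) measurements of survival or tumor size in tumor-bearing mice.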

[1] abbreviates: dose: 100.0 mg/kg/injection, schedule: Q04DX003 (ip), vehicle: Klucel (hydroxypropylcellulose) (HPC).
Where [2] appears, read: dose: 200.0 mg/kg/injection, schedule: Q04DX003 (ip), vehicle: Klucel (hydroxypropylcellulose) (HPC).
Where [3] appears, read: dose: 400.0 mg/kg/injection, schedule: Q04DX003 (ip), vehicle: Klucel (hydroxypropylcellulose) (HPC).
Where [4] appears, read: dose: 100.0 mg/kg/injection, schedule: Q01DX009 (ip), vehicle: saline with Tween-80.
Setting [5] is: dose: 200.0 mg/kg/injection, schedule: Q01DX009 (ip), vehicle: saline with Tween-80.
[6] abbreviates: dose: 50.0 mg/kg/injection, schedule: Q04DX003 (ip), vehicle: saline with Tween-80.
[7] abbreviates: dose: 50.0 mg/kg/injection, schedule: Q01DX009 (ip), vehicle: Klucel (hydroxypropylcellulose) (HPC).
The mark [8] stands for this setting: dose: 100.0 mg/kg/injection, schedule: Q01DX009 (ip), vehicle: Klucel (hydroxypropylcellulose) (HPC).
The mark [9] stands for this setting: dose: 200.0 mg/kg/injection, schedule: Q01DX009 (ip), vehicle: Klucel (hydroxypropylcellulose) (HPC).
The mark [10] stands for this setting: dose: 400.0 mg/kg/injection, schedule: Q01DX009 (ip), vehicle: Klucel (hydroxypropylcellulose) (HPC).
[11] abbreviates: dose: 6.25 mg/kg/injection, schedule: Q01DX009 (ip), vehicle: Klucel (hydroxypropylcellulose) (HPC).
The mark [12] stands for this setting: dose: 12.5 mg/kg/injection, schedule: Q01DX009 (ip), vehicle: Klucel (hydroxypropylcellulose) (HPC).
Where [13] appears, read: dose: 25.0 mg/kg/injection, schedule: Q01DX009 (ip), vehicle: Klucel (hydroxypropylcellulose) (HPC).
Where [14] appears, read: dose: 25.0 mg/kg/injection, schedule: Q01DX009 (ip), vehicle: saline with Tween-80.
The mark [15] stands for this setting: dose: 50.0 mg/kg/injection, schedule: Q01DX009 (ip), vehicle: saline with Tween-80.
Setting [16] is: dose: 3.13 mg/kg/injection, schedule: Q01DX009 (ip), vehicle: saline with Tween-80.
Where [17] appears, read: dose: 6.25 mg/kg/injection, schedule: Q01DX009 (ip), vehicle: saline with Tween-80.
Setting [18] is: dose: 12.5 mg/kg/injection, schedule: Q01DX009 (ip), vehicle: saline with Tween-80.

Several values for one entry are separate records, joined by “and”; a condition that tells them apart may be missing. Identical values can stand only once. Inconclusive results and toxic doses are left out.

Consider `Oc1ccccc1OCc1ccccc1`, for which the T/C under setting [1] is 107 % of control, the T/C under setting [2] is 105 % of control and the T/C under setting [3] is 105 % of control.

Take `CCCCNC(=O)Nc1ccccc1CC`: the T/C is, setting by setting: under setting [1], 110 % of control; under setting [2], 103 % of control; under setting [3], 96 % of control.

Take `O=C(CCCCC(=O)Nc1ccc(C2=NCCN2)cc1)Nc1ccc(C2=NCCN2)cc1`: the T/C was 96 % of control (dose: 50.0 mg/kg/injection, schedule: Q04DX003 (ip), vehicle: saline); 93 % of control (dose: 100.0 mg/kg/injection, schedule: Q04DX003 (ip), vehicle: saline); 90 % of control (dose: 200.0 mg/kg/injection, schedule: Q04DX003 (ip), vehicle: saline); 86 % of control (dose: 400.0 mg/kg/injection, schedule: Q04DX003 (ip), vehicle: saline).

As for `O=[N+]([O-])c1ccc2c(N=Nc3c(O)ccc4ccccc34)c(O)cc(S(=O)(=O)O)c2c1`, the T/C by setting is: under setting [4], 106 % of control; under setting [5], 102 % of control.

With `S=c1sc2ccccc2n1CN(c1ccccc1)c1ccc2ccccc2c1`, the T/C is, setting by setting: (dose: 25.0 mg/kg/injection, schedule: Q04DX003 (ip), vehicle: saline with Tween-80) 109 % of control; under setting [6], 106 % of control; (dose: 100.0 mg/kg/injection, schedule: Q04DX003 (ip), vehicle: saline with Tween-80) 93 % of control and 103 % of control.

On to `CCCC(O)C(CC)CO` (stereo not given), for which the T/C by setting is: under setting [4], 100 % of control; under setting [5], 121 % of control; (dose: 400.0 mg/kg/injection, schedule: Q01DX009 (ip), vehicle: saline with Tween-80) 115 % of control.

As for `O=C1c2ccccc2CC12OC2c1ccccc1` (stereo not given), the T/C by setting is: under setting [7], 94 % of control; under setting [8], 90 % of control; under setting [9], 103 % of control; under setting [10], 96 % of control.

As to `CC(C)Nc1ncnc2[nH]ncc12`, the T/C was 96 % of control (dose: 1.0 mg/kg/injection, schedule: Q01DX009 (ip), vehicle: Klucel (hydroxypropylcellulose) (HPC)); 105 % of control (dose: 2.0 mg/kg/injection, schedule: Q01DX009 (ip), vehicle: Klucel (hydroxypropylcellulose) (HPC)); 94 % of control (dose: 4.0 mg/kg/injection, schedule: Q01DX009 (ip), vehicle: Klucel (hydroxypropylcellulose) (HPC)); 102 % of control (dose: 8.0 mg/kg/injection, schedule: Q01DX009 (ip), vehicle: Klucel (hydroxypropylcellulose) (HPC)).

With `COC1(OC)C2(Cl)C(Cl)=C(Cl)C1(Cl)C1C(=O)C=CC(=O)C12` (stereo not given), the T/C (dose: 1.56 mg/kg/injection, schedule: Q01DX009 (ip), vehicle: Klucel (hydroxypropylcellulose) (HPC)) was 91 % of control; the T/C (dose: 3.12 mg/kg/injection, schedule: Q01DX009 (ip), vehicle: Klucel (hydroxypropylcellulose) (HPC)) is 90 % of control; the T/C under setting [11] is 90 % of control; the T/C under setting [12] is 90 % of control; the T/C under setting [13] was 91 % of control; the T/C under setting [10] was 88 % of control.

For `CCCCCCCCCC(=O)OC(C)C(=O)N(CCCC)CCCC` (stereo not given), the T/C under setting [14] is 98 % of control, the T/C under setting [15] is 97 % of control and the T/C under setting [4] was 88 % of control.

Take `COc1cccc2c1C(=O)c1c(O)c3c(c(O)c1C2=O)C[C@@](O)(/C(C)=N\NC(=O)CO)C[C@@H]3OC1CC(N)C(O)C(C)O1` (stereo not given in full): the T/C by setting is: (dose: 0.39 mg/kg/injection, schedule: Q01DX009 (ip), vehicle: saline) 117 % of control; (dose: 1.56 mg/kg/injection, schedule: Q01DX009 (ip), vehicle: saline) 162 % of control; (dose: 2.5 mg/kg/injection, schedule: Q01DX001 (ip), vehicle: water) 97 % of control and 100 % of control; (dose: 3.12 mg/kg/injection, schedule: Q01DX009 (ip), vehicle: saline) 173 % of control and 218 % of control; (dose: 6.25 mg/kg/injection, schedule: Q01DX009 (ip), vehicle: saline) 206 % of control and 375 % of control; (dose: 10.0 mg/kg/injection, schedule: Q01DX001 (ip), vehicle: water) 108 % of control and 250 % of control. For the same compound, the T/C (dose: 20.0 mg/kg/injection, schedule: Q01DX001 (ip), vehicle: water) was 87 % of control and 102 % of control; the T/C (dose: 40.0 mg/kg/injection, schedule: Q01DX001 (ip), vehicle: water) was 95 % of control.

Turning to `O=C(Nc1cc(C(F)(F)F)ccc1Cl)c1ccc(Cl)cc1`, the T/C was 104 % of control under setting [8], 100 % of control under setting [9] and 103 % of control under setting [10].

Regarding `COc1cc2c(cc1OC)[C@H]1CNC[C@H]1[C@@H](c1ccccc1)C2`, the T/C runs as follows: (dose: 50.0 mg/kg/injection, schedule: Q01DX009 (ip), vehicle: saline) 123 % of control; (dose: 100.0 mg/kg/injection, schedule: Q01DX009 (ip), vehicle: saline) 114 % of control.

Take `O=C(CC(O)(C(F)(F)Cl)C(F)(F)Cl)c1ccco1`: the T/C under setting [14] was 100 % of control, the T/C under setting [15] is 100 % of control and the T/C under setting [4] was 105 % of control.

On to `CCCCCCCCSC1=C(Cl)C(=O)C(OC)=C(OC)C1=O`, for which the T/C under setting [16] is 88 % of control.

With `CCC1OC(=O)CC(O)C(C)C(OC2OC(C)CC(N(C)C)C2O)C(CC=O)CC(C)C(=O)/C=C/C2(C)OC2C1C` (stereo not given), the T/C is, setting by setting: under setting [7], 88 % of control; under setting [8], 92 % of control.

For `O=C1C(=O)c2ccccc2-c2ccccc21`, the T/C by setting is: (dose: 1.56 mg/kg/injection, schedule: Q01DX009 (ip), vehicle: saline with Tween-80) 100 % of control; under setting [16], 89 % of control; under setting [11], 102 % of control; under setting [17], 97 % of control; under setting [12], 101 % of control; under setting [18], 100 % of control. Besides, the T/C was 98 % of control (dose: 12.5 mg/kg/injection, schedule: Q04DX003 (ip), vehicle: Klucel (hydroxypropylcellulose) (HPC)); 104 % of control under setting [13]; 89 % of control (dose: 25.0 mg/kg/injection, schedule: Q04DX003 (ip), vehicle: Klucel (hydroxypropylcellulose) (HPC)); 109 % of control under setting [7]; 98 % of control (dose: 50.0 mg/kg/injection, schedule: Q04DX003 (ip), vehicle: Klucel (hydroxypropylcellulose) (HPC)); 166 % of control under setting [6]. Under setting [1], the T/C is 89 % of control.

On to `CCCCCCC(=O)CC(C)C`, for which the T/C is, setting by setting: under setting [8], 93 % of control; under setting [9], 90 % of control; under setting [10], 86 % of control.

On to `COc1c(C(C)(C)C)cc([N+](=O)[O-])c(C)c1[N+](=O)[O-]`, for which the T/C is, setting by setting: under setting [1], 100 % of control; under setting [2], 96 % of control; under setting [3], 87 % of control.

As to `O=[N+]([O-])c1ccc(/C=N/c2ncc(Br)s2)o1`, the T/C under setting [17] is 95 % of control and the T/C under setting [18] is 93 % of control.

These data come from PubChem BioAssay AID192 (DTP/NCI, 2004).
